Laboratory results: patent US6486175B1, “Diester prodrugs of a decahydroisoquinoline-3-carboxylic acid” (Eli Lilly and Company, priority 1999, dated 2002)

How the values were obtained:
[1] = Bioavailability in Cynomolgus Monkeys: plasma pharmacokinetics of Compound A after i.v./p.o. dosing; conditions: cynomolgus monkey, in vivo
Method: (§1) The following in vivo data, in rats, dogs and monkeys, exemplify the surprising improvement in bioavailability of the diester prodrugs of the present invention over the diacid of 3S,4aR,6S, 8aR-6-(((4-carboxy)phenyl)methyl)1,2,3,4,4a,5,6,7,8,8a-decahydroisoquinoline-3-carboxylic acid. Percent bioavailability is determined using the following equation: [formula]
(§2) wherein AUC represents the area under the curve, p.o. represents oral dose, and i.v. represents intravenous dose.
Four female monkeys were administered an oral and iv dose of compound A (oral: 10 mg/kg; iv: 1 mg/kg) to determine oral bioavailability. The same animals were also administered an oral 10 mg/kg dose of compound B. The plasma concentrations of compound A were determined by LC/MS/MS.
Four female cynomolgus monkeys were given a single iv dose of compound A (1 mg/kg) on day 0, a single oral dose of compound A (10 mg/kg) on day 6 and a single oral dose of compound B (10 mg/kg) on day 10. Blood was collected at 0.5, 1, 2, 3, 4, 5, 6 and 8 hours post dose for oral dosing and 0.167, 0.33, 0.67, 1, 1.5, 2, 3 and 4 hours post dose for iv dosing. Dosing solutions for compound A and compound B were prepared in water. […] Measurable levels of drug (>10 ng/ml) were still present 8 hours post dose. […] Bioavailability was estimated at 34.8%.

[2] = Pharmacokinetic parameters of Compound A in Fischer Rats after a 10 mg/kg dose; format: in vivo; conditions: rat, iv, plasma Compound A
Method: as §1, §2
Tables 1 and 2 below summarize the pharmacokinetic parameters found for Compounds A and B following 10 mg/kg administration (i.v. or p.o.) to Beagle Dogs and Fischer Rats respectively.

[3] = Bioavailability in Dogs: plasma pharmacokinetics of Compound A after i.v./p.o. dosing; format: in vivo; conditions: both sexes, dog, iv, Beagle dogs, 10 mg/kg
Method: as §1, §2
Beagle dogs (2 male and 1 female) were administered an oral and iv dose of 3S,4aR,6S,8aR-6-(((4-carboxy)phenyl)methyl)-1,2,3,4,4a,5,6,7,8,8a-decahydroisoquinoline-3-carboxylic acid (10 mg/kg) to determine oral bioavailability. The same three dogs were also administered an oral 10 mg/kg dose of compound 3S,4aR,6S,8aR-6-(((4-carboxy)phenyl)methyl)-1,2,3,4,4a,5,6,7,8,8a-decahydroisoquinoline-3-carboxylic acid, diethyl ester, to determine whether the prodrug would increase bioavailability. The plasma concentrations of 3S,4aR,6S,8aR-6-(((4-carboxy)phenyl)methyl)-1,2,3,4,4a,5,6,7,8,8a-decahydroisoquinoline-3-carboxylic acid were determined by LC/MS/MS. […]

| plasma levels of compound B (unchanged prodrug) ([1]; po, 10 mg/kg) | % Bioavail ([1]; female, po, 10 mg/kg) [%] | AUC ([1]; female, po, 10 mg/kg) | Improvement ([1]; female, po, 10 mg/kg) [X] | increase in the bioavailability ([1]; female, po, 10 mg/kg) [fold] | levels of drug in plasma at 0.5 hr ([1]; po, 10 mg/kg) | AUC ([1]; female, iv, 1 mg/kg) [ng·h/mL] | Cmax ([1]; female, iv, 1 mg/kg) [ng/mL] | clearance ([1]; female, iv, 1 mg/kg) [mL/min/kg] | half-life ([1]; female, iv, 1 mg/kg) [min] | Cmax ([1]; female, po, 10 mg/kg) [ng/mL] | Tmax ([1]; female, po, 10 mg/kg) [min] | concentration at 8 h ([1]; female, po, 10 mg/kg) [ng/mL] | AUC [2] [ng·h/mL] | Cmax [2] [ng/mL] | AUC [3] [ng·h/mL] | Cmax [3] [ng/mL] | Structure (SMILES) |
| --- | --- | --- | --- | --- | --- | --- | --- | --- | --- | --- | --- | --- | --- | --- | --- | --- | --- |
| No detectable plasma levels | 34.8 | 4,149 ng hr/mL | 3.1 | 3.1 | – | – | – | – | – | – | – | – | – | – | – | – | CCOC(=O)c1ccc(C[C@H]2CC[C@H]3CN[C@H](C(=O)OCC)C[C@H]3C2)cc1.Cl [Compound B, 3S,4aR,6S, 8aR-6-(((4-carboxy)phenyl)methyl)-1,2,3,4,4a,5,6,7,8,8a-decahydroisoquinoline-3-carboxylic acid HCl, diethyl ester] |
| – | 11.1 | 1,320 ng hr/mL | 1 | – | measurable levels of drug were detected | 1190 | 1920 | 14 | 42 | 127 | 60 | > 10 | 2410 | 6280 | 41400 | 28800 | O=C(O)c1ccc(C[C@H]2CC[C@H]3CN[C@H](C(=O)O)C[C@H]3C2)cc1 [Compound A, 3S,4aR,6S,8aR-6-(((4-carboxy)phenyl)methyl)-1,2,3,4,4a,5,6,7,8,8a-decahydroisoquinoline-3-carboxylic acid] |
